Key:
Assay in all cases: Cell panel screen (CellTiter-Glo)
Format in all cases: cell-based, human
A498 = A498 (listed under Lung), 20 micromolar, 72 hrs
Method in brief: (§1)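 Single-concentration screen: 20 μM compound, 72 h, versus DMSO-only untreated cells. Viability read by CellTiter-Glo luminescence; % inhibition = (untreated − treated)/(untreated − no-cell background) × 100. Cells grown in recommended media plus 10% FBS at 37° C.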

A704 = A704 (Kidney), 20 micromolar, 72 hrs
Method in brief: as §1

BT-474 = BT-474 (Breast), 20 micromolar, 72 hrs
Method in brief: as §1

BT-549 = BT-549 (Breast), 20 micromolar, 72 hrs
Method in brief: as §1

Bel-7402 = Bel-7402 (Liver), 20 micromolar, 72 hrs
Method in brief: as §1

C3A = C3A (Liver), 20 micromolar, 72 hrs
Method in brief: as §1

C8166 = C8166 (Leukemia), 20 micromolar, 72 hrs
Method in brief: as §1

CCF-STTG1 = CCF-STTG1 (Brain), 20 micromolar, 72 hrs
Method in brief: as §1

CW-2 = CW-2 (Colon), 20 micromolar, 72 hrs
Method in brief: as §1

ChaGo-K-1 = ChaGo-K-1 (Lung), 20 micromolar, 72 hrs
Method in brief: as §1

Colo 205 = details: Colo 205, 20 micromolar, 72 hrs
Method in brief: as §1

HCC1395 = HCC1395 (Breast), 20 micromolar, 72 hrs
Method in brief: as §1

HCC1569 = HCC1569 (Breast), 20 micromolar, 72 hrs
Method in brief: as §1

HCC1599 = HCC1599 (Breast), 20 micromolar, 72 hrs
Method in brief: as §1

HCC1937 = HCC1937 (Breast), 20 micromolar, 72 hrs
Method in brief: as §1

HEC-1-A = HEC-1-A (Uterus), 20 micromolar, 72 hrs
Method in brief: as §1

HGC-27 = HGC-27 (Stomach), 20 micromolar, 72 hrs
Method in brief: as §1

HPAF-II = HPAF-II (Pancreas), 20 micromolar, 72 hrs
Method in brief: as §1

HT-1197 = HT-1197 (Urinary bladder), 20 micromolar, 72 hrs
Method in brief: as §1

J82 = J82 (Urinary bladder), 20 micromolar, 72 hrs
Method in brief: as §1

M059J = M059J (Brain), 20 micromolar, 72 hrs
Method in brief: as §1

MSTO-211-H = MSTO-211-H (Lung), 20 micromolar, 72 hrs
Method in brief: as §1

NCI-H1623 = NCI-H1623 (Lung), 20 micromolar, 72 hrs
Method in brief: as §1

NCI-H1694 = NCI-H1694 (Lung), 20 micromolar, 72 hrs
Method in brief: as §1

NCI-H1770 = NCI-H1770 (Lung), 20 micromolar, 72 hrs
Method in brief: as §1

NCI-H2347 = NCI-H2347 (Lung), 20 micromolar, 72 hrs
Method in brief: as §1

NCI-H2405 = NCI-H2405 (Lung), 20 micromolar, 72 hrs
Method in brief: as §1

NCI-H28 = NCI-H28 (Lung), 20 micromolar, 72 hrs
Method in brief: as §1

NCI-H524 = NCI-H524 (Lung), 20 micromolar, 72 hrs
Method in brief: as §1

Panc 03.27 = Panc 03.27 (Pancreas), 20 micromolar, 72 hrs
Method in brief: as §1

RL95 = RL95 (Uterus), 20 micromolar, 72 hrs
Method in brief: as §1

SW13 = SW13 (Adrenal gland), 20 micromolar, 72 hrs
Method in brief: as §1

T47D = T47D (Breast), 20 micromolar, 72 hrs
Method in brief: as §1

T98G = T98G (Brain), 20 micromolar, 72 hrs
Method in brief: as §1

TCCSUP = TCCSUP (Urinary bladder), 20 micromolar, 72 hrs
Method in brief: as §1

ZR-75-30 = ZR-75-30 (Breast), 20 micromolar, 72 hrs
Method in brief: as §1

O=c1c2cc(O)ccc2oc2cccc(O)c12 [Gof3]
Percent Inhibition (A498): 39% | Percent Inhibition (A704): 23% | Percent Inhibition (BT-474): 7% | Percent Inhibition (BT-549): 16% | Percent Inhibition (Bel-7402): 45% | Percent Inhibition (C3A): 7% | Percent Inhibition (C8166): 29% | Percent Inhibition (CCF-STTG1): 31% | Percent Inhibition (CW-2): 39% | Percent Inhibition (ChaGo-K-1): 12% | Percent Inhibition (Colo 205): 22% | Percent Inhibition (HCC1395): 35% | Percent Inhibition (HCC1569): 29% | Percent Inhibition (HCC1599): 36% | Percent Inhibition (HCC1937): 8% | Percent Inhibition (HEC-1-A): 19% | Percent Inhibition (HGC-27): 34% | Percent Inhibition (HPAF-II): 15% | Percent Inhibition (HT-1197): 28% | Percent Inhibition (J82): 20% | Percent Inhibition (M059J): 53% | Percent Inhibition (MSTO-211-H): 36% | Percent Inhibition (NCI-H1623): -7% | Percent Inhibition (NCI-H1694): 29% | Percent Inhibition (NCI-H1770): 17% | Percent Inhibition (NCI-H2347): 20% | Percent Inhibition (NCI-H2405): -13% | Percent Inhibition (NCI-H28): 27% | Percent Inhibition (NCI-H524): 18% | Percent Inhibition (Panc 03.27): 7% | Percent Inhibition (RL95): 42% | Percent Inhibition (SW13): 33% | Percent Inhibition (T47D): 10% | Percent Inhibition (T98G): 27% | Percent Inhibition (TCCSUP): 32% | Percent Inhibition (ZR-75-30): 41%

O=C1c2c(O)cc(O)cc2OC(c2ccc(O)cc2)C1c1c(O)cc(O)c2c(=O)cc(-c3ccc(O)c(O)c3)oc12 (stereo not drawn) [WZ-4]
Percent Inhibition (A498): 4% | Percent Inhibition (A704): -1% | Percent Inhibition (BT-474): -5% | Percent Inhibition (BT-549): -12% | Percent Inhibition (Bel-7402): -3% | Percent Inhibition (C3A): -2% | Percent Inhibition (C8166): -3% | Percent Inhibition (CCF-STTG1): 0% | Percent Inhibition (CW-2): 11% | Percent Inhibition (ChaGo-K-1): -14% | Percent Inhibition (Colo 205): -6% | Percent Inhibition (HCC1395): 16% | Percent Inhibition (HCC1569): -17% | Percent Inhibition (HCC1599): 8% | Percent Inhibition (HCC1937): 0% | Percent Inhibition (HEC-1-A): 10% | Percent Inhibition (HGC-27): -4% | Percent Inhibition (HPAF-II): -10% | Percent Inhibition (HT-1197): -4% | Percent Inhibition (J82): -5% | Percent Inhibition (M059J): -1% | Percent Inhibition (MSTO-211-H): 6% | Percent Inhibition (NCI-H1623): -15% | Percent Inhibition (NCI-H1694): -10% | Percent Inhibition (NCI-H1770): -10% | Percent Inhibition (NCI-H2347): -4% | Percent Inhibition (NCI-H2405): -14% | Percent Inhibition (NCI-H28): 0% | Percent Inhibition (NCI-H524): -18% | Percent Inhibition (Panc 03.27): -16% | Percent Inhibition (RL95): -2% | Percent Inhibition (SW13): 5% | Percent Inhibition (T47D): 6% | Percent Inhibition (T98G): -2% | Percent Inhibition (TCCSUP): 3% | Percent Inhibition (ZR-75-30): 8%

COc1cc(O)c2c(=O)c3cc4c(c(O)c3oc2c1CC=C(C)C)OC(C)(C)C=C4 [gl-12]
Percent Inhibition (A498): 11% | Percent Inhibition (A704): 3% | Percent Inhibition (BT-474): -2% | Percent Inhibition (BT-549): -2% | Percent Inhibition (Bel-7402): 5% | Percent Inhibition (C3A): 7% | Percent Inhibition (C8166): 25% | Percent Inhibition (CCF-STTG1): 16% | Percent Inhibition (CW-2): 28% | Percent Inhibition (ChaGo-K-1): 38% | Percent Inhibition (Colo 205): 10% | Percent Inhibition (HCC1395): 22% | Percent Inhibition (HCC1569): 19% | Percent Inhibition (HCC1599): 52% | Percent Inhibition (HCC1937): -7% | Percent Inhibition (HEC-1-A): 13% | Percent Inhibition (HGC-27): 34% | Percent Inhibition (HPAF-II): 21% | Percent Inhibition (HT-1197): 20% | Percent Inhibition (J82): 17% | Percent Inhibition (M059J): 27% | Percent Inhibition (MSTO-211-H): -5% | Percent Inhibition (NCI-H1623): 5% | Percent Inhibition (NCI-H1694): 28% | Percent Inhibition (NCI-H1770): 34% | Percent Inhibition (NCI-H2347): 9% | Percent Inhibition (NCI-H2405): 11% | Percent Inhibition (NCI-H28): 2% | Percent Inhibition (NCI-H524): -2% | Percent Inhibition (Panc 03.27): 24% | Percent Inhibition (RL95): 23% | Percent Inhibition (SW13): -2% | Percent Inhibition (T47D): 21% | Percent Inhibition (T98G): 28% | Percent Inhibition (TCCSUP): 11% | Percent Inhibition (ZR-75-30): 54%

CC(C)=CCc1c(O)c(O)cc2oc3cc(O)cc(O)c3c(=O)c12 [bn-10, 1,3,6,7-tetrahydroxy-8-(3-methylbut-2-enyl)xanthone]
Percent Inhibition (A498): 25% | Percent Inhibition (A704): -11% | Percent Inhibition (BT-474): -3% | Percent Inhibition (BT-549): -4% | Percent Inhibition (Bel-7402): 7% | Percent Inhibition (C3A): 20% | Percent Inhibition (C8166): 23% | Percent Inhibition (CCF-STTG1): 8% | Percent Inhibition (CW-2): 25% | Percent Inhibition (ChaGo-K-1): 18% | Percent Inhibition (Colo 205): 19% | Percent Inhibition (HCC1395): 8% | Percent Inhibition (HCC1569): 16% | Percent Inhibition (HCC1599): 77% | Percent Inhibition (HCC1937): 32% | Percent Inhibition (HEC-1-A): 22% | Percent Inhibition (HGC-27): 30% | Percent Inhibition (HPAF-II): -2% | Percent Inhibition (HT-1197): 8% | Percent Inhibition (J82): 29% | Percent Inhibition (M059J): 9% | Percent Inhibition (MSTO-211-H): 4% | Percent Inhibition (NCI-H1623): -10% | Percent Inhibition (NCI-H1694): 28% | Percent Inhibition (NCI-H1770): 0% | Percent Inhibition (NCI-H2347): 9% | Percent Inhibition (NCI-H2405): -8% | Percent Inhibition (NCI-H28): 12% | Percent Inhibition (NCI-H524): -20% | Percent Inhibition (Panc 03.27): -1% | Percent Inhibition (RL95): 15% | Percent Inhibition (SW13): 11% | Percent Inhibition (T47D): 4% | Percent Inhibition (T98G): 21% | Percent Inhibition (TCCSUP): 33% | Percent Inhibition (ZR-75-30): 77%

COc1ccc2c(=O)c3c(O)cc(O)cc3oc2c1OC [Go-14]
Percent Inhibition (A498): -2% | Percent Inhibition (A704): -13% | Percent Inhibition (BT-474): -23% | Percent Inhibition (BT-549): -16% | Percent Inhibition (Bel-7402): -8% | Percent Inhibition (C3A): -7% | Percent Inhibition (C8166): 2% | Percent Inhibition (CCF-STTG1): -1% | Percent Inhibition (CW-2): 5% | Percent Inhibition (ChaGo-K-1): -16% | Percent Inhibition (Colo 205): 8% | Percent Inhibition (HCC1395): -8% | Percent Inhibition (HCC1569): 2% | Percent Inhibition (HCC1599): 0% | Percent Inhibition (HCC1937): 3% | Percent Inhibition (HEC-1-A): -6% | Percent Inhibition (HGC-27): -2% | Percent Inhibition (HPAF-II): 0% | Percent Inhibition (HT-1197): -3% | Percent Inhibition (J82): -8% | Percent Inhibition (M059J): 0% | Percent Inhibition (MSTO-211-H): 11% | Percent Inhibition (NCI-H1623): -10% | Percent Inhibition (NCI-H1694): -3% | Percent Inhibition (NCI-H1770): -4% | Percent Inhibition (NCI-H2347): -2% | Percent Inhibition (NCI-H2405): -10% | Percent Inhibition (NCI-H28): -3% | Percent Inhibition (NCI-H524): -5% | Percent Inhibition (Panc 03.27): 4% | Percent Inhibition (RL95): -5% | Percent Inhibition (SW13): -12% | Percent Inhibition (T47D): -3% | Percent Inhibition (T98G): 8% | Percent Inhibition (TCCSUP): 6% | Percent Inhibition (ZR-75-30): -20%
